Data as given in US10526347B2, “3-(3H-imidazo[4,5-B]pyridin-2-yl)-1H-pyrazolo[3,4-B]pyridine and therapeutic uses thereof” (Samumed, LLC, priority 2014, dated 2020).

Legend:
Format in all cases: cell-based
[1] = test system: primary human fibroblasts derived from IPF patients (LL29 cells); assay: Inhibition of the fibrotic process in TGF-β1 treated IPF patient fibroblasts (αSMA staining); conditions: Fibroblast, 96 h, LL29 cells treated with TGF-β1 (20 ng/mL), 4 days, read-out: Inhibition of fibrosis EC50
Procedure, shortened: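 LL29 IPF lung fibroblasts in F12 with 1% FBS, compound (11-point, 10 μM to 1.87 nM, 0.1% DMSO) plus TGF-β1 20 ng/mL for 4 days at 37° C. αSMA-positive % of SYTOX-negative cells by immunofluorescence imaging, normalized to TGF-β1 wells; EC50 from non-linear regression of triplicates.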

[2] = test system: primary human mesenchymal stem cells (hMSCs); assay: Chondrogenesis induction in primary human mesenchymal stem cells (chondrogenic nodules, Rhodamine B / Nile Red); conditions: 6 days; for Max. Activity as % TGF-β3 activity: positive control TGF-β3 10 ng/mL, nodule number normalized to DMSO; for EC (100% of TGF-beta3 activity): Homo sapiens, Mesenchymal stem cells, 144 h, concentration required to induce chondrogenesis equivalent to TGF-β3 10 ng/mL, read-out: Conc (nM) of 100% TGF-β3 activity
Protocol: The above synthesized compounds were screened using primary human mesenchymal stem cells (hMSCs) to determine their ability to induce chondrogenesis (process by which cartilage is developed).
Primary human mesenchymal stem cells (hMSCs) were purchased from Lonza (Walkersville, Md.) and expanded in Mesenchymal Stem Cell Growth Media (Lonza). Cells between passage 3 and 6 were used for the experiments.
Each compound was dissolved in DMSO as a 10 mM stock and used to prepare compound source plates. Serial dilution (1:3, 6-point dose-response curves from 2700 nM to 10 nM) and compound transfer was performed using the ECHO 550 (Labcyte, Sunnyvale, Calif.) into 96-well clear bottom assay plates (Greiner Bio-One) with appropriate DMSO backfill for a final DMSO concentration of 0.03%. hMSCs were plated at 20,000 cells/well in 250 μL/well Incomplete Chondrogenic Induction Medium (Lonza; DMEM, dexamethasone, ascorbate, insulin-transferrin-selenium [ITS supplement], gentamycin-amphotericin [GA-1000], sodium pyruvate, proline and L-glutamine). TGF-β3 (10 ng/mL) was used as a positive control for differentiation while negative control wells were treated with 75 nL DMSO for normalization and calculating EC50 values. Cells were incubated at 37° C. and 5% CO2 for 6 days. To image chondrogenic nodules, the cells were fixed using 4% formaldehyde (Electron Microscopy Sciences), and stained with 2 μg/mL Rhodamine B (Sigma-Aldrich) and 20 μM Nile Red (Sigma-Aldrich) [Johnson K., et. al, A Stem Cell-Based Approach to Cartilage Repair, Science, (2012), 336(6082). 717-721]. The nodules imaged (4 images per well at 4× magnification) by excitation at 531 nm and emission at 625 nm and quantified using the CellInsight CX5 (Thermo Scientific). Number of nodules in each well was normalized to the average of 3 DMSO treated wells on the same plate using Excel (Microsoft Inc.). The normalized averages (fold change over DMSO) of 3 replicate wells for each compound concentration were calculated. Due to solubility limitations of some of the compounds, curve fitting was incomplete leading to inaccurate EC50 determinations.
Using TGF-β3 as a positive control, the concentration of test compounds required to induce equivalent levels of chondrogenesis is reported. In addition, the maximum activity of each compound and the respective dose that each compound reached maximum chondrogenesis activity is reported.

[3] = test system: Wnt activity (SW480 colon carcinoma cells stably expressing the Sp5-Luc reporter gene); assay: Sp5-Luc reporter gene screening assay for Wnt activity; conditions: Homo sapiens
Procedure, shortened: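 The SW480 cells carry a lentiviral luciferase reporter driven by a Sp5 promoter with eight TCF/LEF sites. They were plated at 10,000 cells/well in 10% FCS overnight, then pinned with 50 nl of 3-fold dilutions (10 mM top source concentration) into 50 μl.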

IC50 [3] | SMILES | EC50 [1] | Max. Activity as % TGF-β3 activity [2] | EC (100% of TGF-beta3 activity) [2]
36.6 nM | CCC(=O)Nc1cncc(-c2cnc3[nH]nc(-c4nc5c(N6CCCCC6)ccnc5[nH]4)c3c2)c1 [Compound 133, N-(5-(3-(7-(Piperidin-1-yl)-3H-imidazo[4,5-b]pyridin-2-yl)-1H-pyrazolo[3,4-b]pyridin-5-yl)pyridin-3-yl)propionamide] | 853 nM | 300% | 317 nM
2.7 nM | CCCC(=O)Nc1cncc(-c2cnc3[nH]nc(-c4nc5c(-c6ccsc6)ccnc5[nH]4)c3c2)c1 [Compound 249, N-(5-(3-(7-(Thiophen-3-yl)-3H-imidazo[4,5-b]pyridin-2-yl)-1H-pyrazolo[3,4-b]pyridin-5-yl)pyridin-3-yl)butyramide] | 35 nM | – | 31.9 nM
3.3 nM | CCC(=O)Nc1cncc(-c2cnc3[nH]nc(-c4nc5c(-c6cccs6)ccnc5[nH]4)c3c2)c1 [Compound 285, N-(5-(3-(7-(Thiophen-2-yl)-3H-imidazo[4,5-b]pyridin-2-yl)-1H-pyrazolo[3,4-b]pyridin-5-yl)pyridin-3-yl)propionamide] | ≤ 9 nM | – | 48.9 nM
2.6 nM | Cc1ccc(-c2ccnc3[nH]c(-c4n[nH]c5ncc(-c6cncc(N)c6)cc45)nc23)s1 [Compound 339, 5-(3-(7-(5-Methylthiophen-2-yl)-3H-imidazo[4,5-b]pyridin-2-yl)-1H-pyrazolo[3,4-b]pyridin-5-yl)pyridin-3-amine] | 40 nM | – | 43.2 nM
20.6 nM | Cc1ccncc1-c1cnc2[nH]nc(-c3nc4c(-c5cc(F)cc(CNS(C)(=O)=O)c5)ccnc4[nH]3)c2c1 [Compound 393, N-(3-Fluoro-5-(2-(5-(4-methylpyridin-3-yl)-1H-pyrazolo[3,4-b]pyridin-3-yl)-3H-imidazo[4,5-b]pyridin-7-yl)benzyl)methanesulfonamide] | 674 nM | 100% | 140 nM
30 nM | Fc1cccc(-c2ccnc3[nH]c(-c4n[nH]c5ncc(-c6cn[nH]c6)cc45)nc23)c1 [Compound 911, 3-(7-(3-Fluorophenyl)-3H-imidazo[4,5-b]pyridin-2-yl)-5-(1H-pyrazol-4-yl)-1H-pyrazolo[3,4-b]pyridine] | 29 nM | 100% | 110 nM
66 nM | Cc1ncc(-c2cnc3[nH]nc(-c4nc5c(-c6cccc(F)c6)ccnc5[nH]4)c3c2)n1C [Compound 913, 5-(1,2-Dimethyl-1H-imidazol-5-yl)-3-(7-(3-fluorophenyl)-3H-imidazo[4,5-b]pyridin-2-yl)-1H-pyrazolo[3,4-b]pyridine] | 216 nM | 300% | 117 nM
